Tests used:
Assay in all cases: Pre-emergence herbicidal action
Format in all cases: in vivo
Abutilon theophrasti = details: dosage 320 g/ha
From the text: (§1) Seeds of monocotyledonous and dicotyledonous weed plants and crop plants are placed in wood-fiber pots in sandy loam and covered with soil. The inventive compounds formulated in the form of wettable powders (WP) or as emulsion concentrates (EC) are then applied to the surface of the covering soil as an aqueous suspension or emulsion at a water application rate of 600 to 800 l/ha (converted) with addition of 0.2% wetting agent. After the treatment, the pots are placed in a greenhouse and kept under good growth conditions for the test plants. The damage to the test plants is assessed visually after a test period of 3 weeks by comparison with untreated controls (herbicidal activity in percent (%): 100% action=the plants have died, 0% action=like control plants). For example, compounds No. 6-102, 6-014 and 6-058 at an application rate of 320 g/ha each show at least 80% efficacy against Abutilon theophrasti, Amaranthus retroflexus and Matricaria inodora.
(§2) In accordance with the conditions specified for pre-emergence testing of herbicidal efficacy against harmful plants, comparative tests were conducted between inventive compounds and compounds known from WO 2011035874 A1.

Amaranthus retroflexus = details: dosage 320 g/ha
From the text: as §1, §2

Matricaria inodora = details: dosage 320 g/ha
From the text: as §1, §2

Stellaria media = details: dosage 320 g/ha
From the text: as §1, §2

Avena fatua = details: Table C, dosage 320 g/ha
From the text: as §1, §2

Pharbitis purpureum = details: dosage 320 g/ha
From the text: as §1, §2

Veronica persica = details: Table A, dosage 320 g/ha
From the text: as §1, §2

Cc1nonc1NC(=O)c1ccc(Cl)c(N=S2(=O)CCCCC2)c1Cl
Herbicidal efficacy against ABUTH (Abutilon theophrasti; Table B): 90%
Herbicidal efficacy against AMARE (Amaranthus retroflexus; Table B): 60%
Herbicidal efficacy against MATIN (Matricaria inodora; Table B): 90%
Herbicidal efficacy against STEME (Stellaria media; Table B): 70%

Cc1nonc1NC(=O)c1ccc(Cl)c(N=S2(=O)CCOCC2)c1Cl
Herbicidal efficacy against AVEFA (Avena fatua): 70%
Herbicidal efficacy against MATIN (Matricaria inodora; Table C): 100%
Herbicidal efficacy against PHBPU (Pharbitis purpureum; Table C): 100%
Herbicidal efficacy against STEME (Stellaria media; Table C): 90%

CCS(=O)(CC)=Nc1c(Cl)ccc(C(=O)Nc2nonc2C)c1Cl
Herbicidal efficacy against ABUTH (Abutilon theophrasti; Table A): 80%
Herbicidal efficacy against AMARE (Amaranthus retroflexus; Table A): 90%
Herbicidal efficacy against MATIN (Matricaria inodora; Table A): 90%
Herbicidal efficacy against PHBPU (Pharbitis purpureum; Table A): 80%
Herbicidal efficacy against VERPE (Veronica persica): 90%

Cc1nonc1NC(=O)c1ccc(Cl)c(N(C)C)c1Cl [drawing 39]
Herbicidal efficacy against ABUTH (Abutilon theophrasti; Table A): 0%
Herbicidal efficacy against AMARE (Amaranthus retroflexus; Table A): 30%
Herbicidal efficacy against MATIN (Matricaria inodora; Table A): 0%
Herbicidal efficacy against PHBPU (Pharbitis purpureum; Table A): 10%
Herbicidal efficacy against VERPE (Veronica persica): 40%

Cc1nonc1NC(=O)c1ccc(Cl)c(N(C)C)c1Cl [drawing 43]
Herbicidal efficacy against AVEFA (Avena fatua): 0%
Herbicidal efficacy against MATIN (Matricaria inodora; Table C): 0%
Herbicidal efficacy against PHBPU (Pharbitis purpureum; Table C): 10%
Herbicidal efficacy against STEME (Stellaria media; Table C): 0%

Cc1nonc1NC(=O)c1ccc(Cl)c(N(C)C)c1Cl [drawing 41]
Herbicidal efficacy against ABUTH (Abutilon theophrasti; Table B): 0%
Herbicidal efficacy against AMARE (Amaranthus retroflexus; Table B): 30%
Herbicidal efficacy against MATIN (Matricaria inodora; Table B): 0%
Herbicidal efficacy against STEME (Stellaria media; Table B): 0%
